How the values were obtained:
[1] = target: Multidrug resistance associated protein (Homo sapiens) (UniProt Q96QA9); experiment: (§1) TP_TRANSPORTER: reporter gene activity in promoter constructs in HepG2 cells; format: functional, cell-based
[2] = target: ATP-binding cassette sub-family C member 2 (Homo sapiens, UniProt Q92887); experiment: as §1; format: functional, cell-based
ATP-binding cassette sub-family C member 2, sequence (Q92887 whole entry): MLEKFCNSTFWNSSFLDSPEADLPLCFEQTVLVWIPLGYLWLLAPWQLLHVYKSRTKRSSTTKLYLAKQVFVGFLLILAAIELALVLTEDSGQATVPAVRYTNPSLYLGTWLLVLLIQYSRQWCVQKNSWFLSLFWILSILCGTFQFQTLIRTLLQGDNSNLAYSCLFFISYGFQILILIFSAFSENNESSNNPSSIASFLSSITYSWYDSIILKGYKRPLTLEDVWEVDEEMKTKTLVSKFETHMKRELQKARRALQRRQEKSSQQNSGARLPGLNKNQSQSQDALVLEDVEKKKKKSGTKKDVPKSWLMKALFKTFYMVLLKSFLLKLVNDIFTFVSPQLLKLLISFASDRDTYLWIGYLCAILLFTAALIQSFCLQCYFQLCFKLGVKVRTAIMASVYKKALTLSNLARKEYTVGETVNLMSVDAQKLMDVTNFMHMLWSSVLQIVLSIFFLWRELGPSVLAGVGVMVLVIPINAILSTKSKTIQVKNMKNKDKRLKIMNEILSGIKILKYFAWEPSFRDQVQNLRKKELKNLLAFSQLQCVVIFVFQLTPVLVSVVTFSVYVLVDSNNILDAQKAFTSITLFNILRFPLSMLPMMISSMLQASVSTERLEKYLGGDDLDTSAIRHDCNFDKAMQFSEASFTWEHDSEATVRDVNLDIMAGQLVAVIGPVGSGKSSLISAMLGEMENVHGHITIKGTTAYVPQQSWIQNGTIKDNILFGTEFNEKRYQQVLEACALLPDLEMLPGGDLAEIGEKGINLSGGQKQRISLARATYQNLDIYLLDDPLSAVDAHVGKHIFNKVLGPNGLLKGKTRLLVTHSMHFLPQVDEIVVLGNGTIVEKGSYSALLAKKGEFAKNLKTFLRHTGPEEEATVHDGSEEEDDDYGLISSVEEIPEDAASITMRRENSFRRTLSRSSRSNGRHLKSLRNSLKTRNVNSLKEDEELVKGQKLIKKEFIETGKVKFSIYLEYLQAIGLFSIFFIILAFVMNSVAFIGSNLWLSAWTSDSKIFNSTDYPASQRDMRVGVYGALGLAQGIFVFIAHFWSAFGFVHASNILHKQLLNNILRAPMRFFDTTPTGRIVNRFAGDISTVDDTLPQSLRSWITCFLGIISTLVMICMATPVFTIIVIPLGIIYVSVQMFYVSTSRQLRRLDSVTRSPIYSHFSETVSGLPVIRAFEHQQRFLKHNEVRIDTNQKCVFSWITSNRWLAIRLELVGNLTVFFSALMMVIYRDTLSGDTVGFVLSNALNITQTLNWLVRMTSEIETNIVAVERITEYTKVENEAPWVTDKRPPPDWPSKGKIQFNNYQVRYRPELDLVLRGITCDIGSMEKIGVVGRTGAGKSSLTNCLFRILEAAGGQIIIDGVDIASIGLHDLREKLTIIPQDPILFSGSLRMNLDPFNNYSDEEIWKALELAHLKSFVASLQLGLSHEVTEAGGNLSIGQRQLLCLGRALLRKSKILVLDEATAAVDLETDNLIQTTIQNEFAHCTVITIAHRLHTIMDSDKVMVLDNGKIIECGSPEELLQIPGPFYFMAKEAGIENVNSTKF

Multidrug resistance associated protein (Homo sapiens), sequence (Q96QA9 as listed by the source): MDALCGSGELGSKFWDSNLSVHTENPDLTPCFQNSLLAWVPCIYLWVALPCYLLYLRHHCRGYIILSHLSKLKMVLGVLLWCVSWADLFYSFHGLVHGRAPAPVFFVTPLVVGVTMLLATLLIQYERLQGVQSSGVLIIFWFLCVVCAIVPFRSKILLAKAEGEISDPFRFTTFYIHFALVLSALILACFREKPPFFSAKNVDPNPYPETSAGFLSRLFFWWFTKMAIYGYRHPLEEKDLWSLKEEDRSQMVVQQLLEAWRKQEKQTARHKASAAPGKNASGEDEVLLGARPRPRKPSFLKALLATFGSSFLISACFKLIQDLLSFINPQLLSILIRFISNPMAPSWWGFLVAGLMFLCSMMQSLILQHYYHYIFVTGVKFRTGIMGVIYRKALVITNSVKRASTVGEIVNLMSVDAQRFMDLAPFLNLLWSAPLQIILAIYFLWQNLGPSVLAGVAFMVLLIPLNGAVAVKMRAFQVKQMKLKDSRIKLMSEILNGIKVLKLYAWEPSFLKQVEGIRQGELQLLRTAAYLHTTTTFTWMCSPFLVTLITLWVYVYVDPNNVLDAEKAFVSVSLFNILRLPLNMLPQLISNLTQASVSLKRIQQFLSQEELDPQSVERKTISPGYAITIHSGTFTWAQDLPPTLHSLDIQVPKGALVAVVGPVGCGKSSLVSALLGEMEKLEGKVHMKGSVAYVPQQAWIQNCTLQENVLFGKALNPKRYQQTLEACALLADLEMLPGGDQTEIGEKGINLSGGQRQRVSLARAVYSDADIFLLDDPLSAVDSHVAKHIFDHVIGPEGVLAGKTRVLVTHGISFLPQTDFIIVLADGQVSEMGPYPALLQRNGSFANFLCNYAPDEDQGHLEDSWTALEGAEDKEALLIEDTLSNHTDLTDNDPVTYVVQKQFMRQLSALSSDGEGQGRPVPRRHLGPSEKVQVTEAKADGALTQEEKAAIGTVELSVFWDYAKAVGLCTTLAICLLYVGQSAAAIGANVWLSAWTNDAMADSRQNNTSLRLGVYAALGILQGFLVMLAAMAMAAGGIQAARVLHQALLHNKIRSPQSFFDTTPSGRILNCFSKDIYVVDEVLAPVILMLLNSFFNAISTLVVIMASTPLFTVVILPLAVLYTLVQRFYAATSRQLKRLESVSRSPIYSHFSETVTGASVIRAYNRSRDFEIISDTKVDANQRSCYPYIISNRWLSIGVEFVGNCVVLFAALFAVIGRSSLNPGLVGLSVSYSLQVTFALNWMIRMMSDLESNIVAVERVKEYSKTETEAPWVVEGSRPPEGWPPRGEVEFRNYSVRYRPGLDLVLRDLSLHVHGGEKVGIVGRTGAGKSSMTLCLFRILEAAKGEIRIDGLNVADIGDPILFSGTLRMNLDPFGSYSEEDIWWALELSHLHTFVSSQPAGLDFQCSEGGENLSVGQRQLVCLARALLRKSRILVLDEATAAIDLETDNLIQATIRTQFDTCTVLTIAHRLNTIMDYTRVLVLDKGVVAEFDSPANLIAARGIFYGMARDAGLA

Row | SMILES | Activity [1] | Activity [2]
1 | COC(=O)Nc1nc2cc(C(=O)c3cccs3)ccc2[nH]1 | inducer [+] | –
2 | COC(=O)Nc1nc2ccc(C(=O)c3cccs3)cc2[nH]1 [NOCODAZOLE] | – | inducer [+]
